Source: US10548982B2, “Reversible covalent linkage of functional molecules” (priority 2009, dated 2020)

Tested on: GIRK currents
Assay: patch-clamp controls: inhibition of the activated GIRK currents
Format: cell-based, human
Experimental: HEK 293 cells expressing HKIR3.1/3.2 channel and human somatostatin receptor 2 were treated with these compounds, and whole cell patch-clamp current recordings taken. […] Cell Culture
Whole cell patch-clamp current recordings were performed with an Axopatch 200B amplifier (Axon Instruments) using fire-polished pipettes with a resistance of 3-4 MS pulled from filamented borosilicated glass capillaries (Harvard Apparatus, 1.5 mm OD×1.17 mm ID). Data was acquired and analysed via a Digidata 1322A interface (Axon Instruments) and pCLAMP software (version 8.1, Axon Instruments). A fast perfusion system was used to apply somatostatin and analogues (Rapid Solution Changer, RSC-160, Bio-Logic France). Cells were clamped at −60 mV. The extracellular solution was (mM): NaCl 80, KCl 60, CaCl2 2, MgCl2 1, HEPES 10, NaH2PO4 0.33, glucose 10, pH 7.4; while the intracellular solution was (mM): K gluconate 110, KCl 20, NaCl 10, MgCl2 1, MgATP 2, EGTA 2 GTP 0.3, pH 7.4. After agonist application, current activated with a delay “lag” followed by a rapid rise to peak amplitude “time to peak”. After removal of the agonist, the current decays back to baseline. For each cell it was assessed if flow artifacts resulting from the pressure of drug application were present. This was done by applying bath solution from one of the sewer pipes at the beginning of the recordings. […]

Substance | GIRK currents after treatment of cells with Pertussis toxin (control) (pertussis toxin 100 ng/ml, cells incubated overnight) | GIRK currents after GIRK inhibitor Tertiapin Q (control) (Tertiapin 100 nM)
Pertussis toxin | currents were largely inhibited | 
Tertiapin Q |  | currents were largely inhibited
